Measured values: patent US20210378993A1 (Nacuity Pharmaceuticals, Inc., priority 2020, published 2021)
Values joined by “and” are separate entries in the source; they are usually repeats but may differ in a detail not shown here. Equal values may be shown once.

Key:
[1] = system: human cystinotic fibroblasts (GM00008); test: Cytotoxicity (MTT cell viability) in cystinotic fibroblast cell culture; type: cell-based; conditions: for cell viability (cytotoxicity) versus no treatment: 25, 50 or 75 μM, 48 and 72 hours (FIGS. 1 and 2), MTT; for increase of human cystinotic cell viability compared to cysteamine at the same concentration: 25 μM
Experimental: Appropriate concentrations of the NACA and diNACA were selected and incubated along with human cystinotic fibroblasts in media. […] Media was then removed, and cells were incubated in 0.5mg/ml MTT (3-(4,5-dimethylthiazol-2-yl)-2,5-diphenyltetrazolium bromide) reconstituted in media. A colorimetric assay used reduction of the yellow tetrazolium salt (MTT) to a purple formazan salt in order to measure cellular metabolic activity as a proxy for cell viability. Treated cells were incubated in MTT for 4 hours at 37° C., after which time intracellular purple formazan salt crystals were visible under a microscope. MTT solution was then removed, and DMSO was added to each well in order to lyse cells and dissolve the salt crystals. After 1 hour incubation at 37° C., absorbance was measured on a multiwell plate reader (Biotek FL6000) at 570 nm, and percentage cell viability calculated.

[2] = eyedrops, stored at −20° C. until dispensed, kept refrigerated once opened; cited from earlier work
[3] = system: human cystinotic fibroblasts (GM00008); test: Screening of cystine-depleting activity in human cystinotic cell-based model; conditions: 50 μM
Experimental: A specialized in vitro human cystinotic cell-based model was used for determining cystine content (Omran et al., 2011c). […]
The cells were recovered from storage at −80° C. and suspended in 100 μl […] N-ethyl malimide prepared in phosphate buffer (pH 7.6) followed by sonication for 10 seconds which was repeated 3 times with 20 second cooling intervals on ice. The solution was centrifuged at 800 G for 10 min at 4° C. (Biofuge primo R Heraeus centrifuge). To this cell supernatant (40 μl) was added 4 μl of 4M NaBH4 in 7:3 0.1 M NaOH/DMSO. After 5 min incubation at room temperature, 800 μl of sodium acetate buffer (pH 4.7) was added. A 5 μl volume of the diluted solution was added to 100 μl of 0.6mg/ml solution of Papain-SSCH3 in a 96 well plate and incubated for one hour at room temperature. A 100 μl volume of 4.9 mM L-benzoylarginine p-nitroanilide (L-BAPNA) solution in sodium acetate buffer (pH 4.0) was added to each well of the 96 well plate, gently mixed and incubated for further one hour at room temperature. Absorption at 410 nm was measured and the cysteine levels were calculated by comparison to known cysteine standard.
The protein concentration in every sample was measured according to Bradford method. Briefly, 200 μl of Bradford reagent was added to 5 μl of cell supernatant in each well of a 96 well plate and incubated for 5 minutes at room temperature and the absorption at 595 nm was measured. The protein concentration was calculated using a range of concentrations of bovine serum albumin as a standard. The cysteine levels were determined following normalization to μM cysteine per mg of protein.

rabbit eyes = test: Ophthalmic tolerability, daily Draize scores after topical ocular administration; type: in vivo; conditions: rabbits, 1% in prototype vehicle, per animal and eye; for Daily Draize Scores for Chemosis, Day 1 / Daily Draize Scores for Discharge, Day 1 / Daily Draize Scores for Hyperemia, Day 1 / Daily Draize Scores for Chemosis, Day 2 / Daily Draize Scores for Discharge, Day 2 / Daily Draize Scores for Hyperemia, Day 2 / Daily Draize Scores for Chemosis, Day 3 / Daily Draize Scores for Discharge, Day 3 / Daily Draize Scores for Hyperemia, Day 3 / Daily Draize Scores for Chemosis, Day 4 / Daily Draize Scores for Discharge, Day 4 / Daily Draize Scores for Hyperemia, Day 4 / Daily Draize Scores for Chemosis, Day 5 / Daily Draize Scores for Discharge, Day 5 / Daily Draize Scores for Hyperemia, Day 5 / Daily Draize Scores for Chemosis, Day 6 / Daily Draize Scores for Discharge, Day 6 / Daily Draize Scores for Hyperemia, Day 6: bilateral topical four times a day; for Daily Draize Scores for Chemosis, Day 7 / Daily Draize Scores for Discharge, Day 7 / Daily Draize Scores for Hyperemia, Day 7 / Daily Draize Scores for Chemosis, Day B / Daily Draize Scores for Discharge, Day B / Daily Draize Scores for Hyperemia, Day B: bilateral topical; for Daily Draize Scores for Chemosis, Day 7 / Daily Draize Scores for Discharge, Day 7 / Daily Draize Scores for Hyperemia, Day 7: once on Day 7; for Daily Draize Scores for Chemosis, Day B / Daily Draize Scores for Discharge, Day B / Daily Draize Scores for Hyperemia, Day B: (baseline)
Experimental: To simulate topical ocular exposure to an ophthalmic insert containing AGENT, prototype ophthalmic formulations were prepared containing either 1% NPI-001, 1% diNACA, 1% NAC or vehicle and tested to evaluate ocular tolerability. Three rabbits per group were administered 1% NPI-001, 1% di-NAC, 1% NAC in a prototype vehicle, via bilateral topical administration four times a day for 6 days, and once on Day 7.

[4] = NACA in aqueous humor after topical ocular administration; type: in vivo; conditions: rabbit eyes, 1% topical ocular
Experimental: The thiol moiety of NAC, NACA, diNACA and their respective internal standards oxidizes quickly in plasma through formation of disulfides. In order to determine total NAC and total NACA levels in plasma, tris(2-carboxyethyl)phosphine (TCEP) is added during the extraction to reduce disulfide bonds (King et al., 2019). Ammonium bicarbonate is added to control sample pH near neutral, as TCEP will otherwise acidify the aliquoted samples and hinder derivatization. The free analyte is then derivatized to a stable thioether using 2-chloro-1-methylpyridinium iodide (CMPI). N-acetyl-L-cysteine is used as the reference standard. The assay would not discern the enantiomer, N-acetyl-D-cysteine, if present. A sample volume of 25.0 μL is aliquoted into a 1.2 mL 96-well plate to which is added, in sequence, 25.0 μL internal standard solution (1000 ng/mL NAC-D3 and 1000 ng/mL NACA-D3 in water), 50.0 μL of ammonium bicarbonate (100 mM), 5.0 μL CMPI (60 mM in water), and 5.0 μL of TCEP (60 mM in water). Samples are allowed to react for 30 minutes. To precipitate proteins, 500 μL of acetonitrile is then added to all samples. The plate is covered and the mixtures are shaken and centrifuged. […]
Samples were analyzed on a Waters Acquity liquid chromatograph interfaced with a Thermo Scientific TSQ Vantage triple quadrupole mass spectrometer with ESI ionization (King et al., 2019). […]

[5] = target: T1, glutamate cysteine ligase (GCL, EC 6.3.2.2) (Homo sapiens, UniProt P48506); conditions: cited from earlier work
T1 sequence (P48506 1-637): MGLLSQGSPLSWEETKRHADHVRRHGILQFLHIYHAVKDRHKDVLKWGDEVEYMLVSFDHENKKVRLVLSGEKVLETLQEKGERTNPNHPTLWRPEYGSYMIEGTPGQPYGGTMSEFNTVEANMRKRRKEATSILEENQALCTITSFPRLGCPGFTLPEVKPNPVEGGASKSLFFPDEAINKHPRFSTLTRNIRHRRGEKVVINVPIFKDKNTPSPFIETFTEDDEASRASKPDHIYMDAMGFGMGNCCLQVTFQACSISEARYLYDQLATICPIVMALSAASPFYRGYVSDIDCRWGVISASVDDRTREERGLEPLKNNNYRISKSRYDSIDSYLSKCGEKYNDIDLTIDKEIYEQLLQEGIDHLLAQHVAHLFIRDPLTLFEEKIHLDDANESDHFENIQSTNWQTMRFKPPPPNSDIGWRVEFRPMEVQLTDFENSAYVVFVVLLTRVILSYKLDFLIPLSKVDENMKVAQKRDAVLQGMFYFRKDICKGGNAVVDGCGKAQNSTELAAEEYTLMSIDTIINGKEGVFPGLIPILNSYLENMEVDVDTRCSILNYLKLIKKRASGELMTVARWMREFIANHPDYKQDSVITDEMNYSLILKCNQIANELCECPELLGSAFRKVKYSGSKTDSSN
T1 sequence (P48507 1-274 partner): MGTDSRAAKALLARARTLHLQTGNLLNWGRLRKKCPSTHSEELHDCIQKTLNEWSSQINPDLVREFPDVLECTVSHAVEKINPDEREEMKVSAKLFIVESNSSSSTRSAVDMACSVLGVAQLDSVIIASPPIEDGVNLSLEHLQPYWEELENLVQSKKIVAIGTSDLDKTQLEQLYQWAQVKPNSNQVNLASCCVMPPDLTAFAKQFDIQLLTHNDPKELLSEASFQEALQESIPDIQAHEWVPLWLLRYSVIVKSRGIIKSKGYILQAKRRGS

SMILES	cell viability (cytotoxicity) versus no treatment [1]	relative cystine concentration as percent of control, comparison with cysteamine ([3]; 6 hours (FIG. 3))	relative cystine concentration as percent of control, comparison with cysteamine ([3]; 24 hours (FIG. 4))	relative cystine concentration as percent of control, comparison with cysteamine ([3]; 48 hours (FIG. 5))	Daily Draize Scores for Chemosis, Day 1 (rabbit eyes)	Daily Draize Scores for Discharge, Day 1 (rabbit eyes)	Daily Draize Scores for Hyperemia, Day 1 (rabbit eyes)	Daily Draize Scores for Chemosis, Day 2 (rabbit eyes)	Daily Draize Scores for Discharge, Day 2 (rabbit eyes)	Daily Draize Scores for Hyperemia, Day 2 (rabbit eyes)	Daily Draize Scores for Chemosis, Day 3 (rabbit eyes)	Daily Draize Scores for Discharge, Day 3 (rabbit eyes)	Daily Draize Scores for Hyperemia, Day 3 (rabbit eyes)	Daily Draize Scores for Chemosis, Day 4 (rabbit eyes)	Daily Draize Scores for Discharge, Day 4 (rabbit eyes)	Daily Draize Scores for Hyperemia, Day 4 (rabbit eyes)	Daily Draize Scores for Chemosis, Day 5 (rabbit eyes)	Daily Draize Scores for Discharge, Day 5 (rabbit eyes)	Daily Draize Scores for Hyperemia, Day 5 (rabbit eyes)	Daily Draize Scores for Chemosis, Day 6 (rabbit eyes)	also measured
NCCS [cysteamine, reference compound]	increased cell viability	–	–	–	–	–	–	–	–	–	–	–	–	–	–	–	–	–	–	–	shelf life [2]: 1 week
CC(=O)NC(CSSCC(NC(C)=O)C(N)=O)C(N)=O [diNACA, (2R,2R′)-3,3′-disulfanediyl bis(2-acetamidopropanamide)]	increased cell viability	statistically superior to cysteamine	superior to cysteamine	statistically superior to cysteamine	0	0	0	0	0	0	0	0	0	0	0 (3×) and 1 (2×) and 0.5	0	0	0	0	0	increase of human cystinotic cell viability compared to cysteamine at the same concentration ([1]; 48 hours (FIG. 1)): statistically superior to cysteamine; increase of human cystinotic cell viability compared to cysteamine at the same concentration ([1]; 72 hours (FIG. 2)): statistically superior to cysteamine; depletion of cystine compared to control ([3]; 72 hours (FIG. 6)): 20%; Daily Draize Scores for Discharge, Day 6 (rabbit eyes): 0 (4×) and 0.5 (2×); Daily Draize Scores for Hyperemia, Day 6 (rabbit eyes): 0; Daily Draize Scores for Chemosis, Day 7 (rabbit eyes): 0; Daily Draize Scores for Discharge, Day 7 (rabbit eyes): 0 (5×) and 0.5; Daily Draize Scores for Hyperemia, Day 7 (rabbit eyes): 0; Daily Draize Scores for Chemosis, Day B (rabbit eyes): 0; Daily Draize Scores for Discharge, Day B (rabbit eyes): 0; Daily Draize Scores for Hyperemia, Day B (rabbit eyes): 0; NACA in aqueous humor [4]: detectable
N[C@@H](CCC(=O)N[C@@H](CS)C(=O)NCC(=O)O)C(=O)O [GSH, c-L-glutamyl-L-cysteinyl-glycine]	–	–	–	–	–	–	–	–	–	–	–	–	–	–	–	–	–	–	–	–	Ki ([5]; read-out: Ki, nonallosteric competitive inhibition of GCL): 2300 µM
N[C@@H](CS)C(=O)O [cysteine, L-cysteine]	–	–	–	–	–	–	–	–	–	–	–	–	–	–	–	–	–	–	–	–	Km [5]: 100 to 300 µM
CC(=O)NC(CS)C(N)=O (stereo not shown)	increased cell viability	statistically superior to cysteamine	statistically superior	statistically superior to cysteamine	0	0	0	0	0	0	0	0	0	0	0	0	0	0	0	0	increase of human cystinotic cell viability compared to cysteamine at the same concentrations ([1]; all concentrations (25, 50, 75 μM), 72 hours (FIG. 2)): statistically superior to cysteamine; relative cystine concentration as percent of control, comparison with cysteamine ([3]; 72 hours (FIG. 6)): superior to cysteamine; Daily Draize Scores for Hyperemia, Day 6 (rabbit eyes): 0; Daily Draize Scores for Discharge, Day 6 (rabbit eyes; listed as NPI-001): 0.5 and 0 (5×); Daily Draize Scores for Chemosis, Day 7 (rabbit eyes): 0; Daily Draize Scores for Hyperemia, Day 7 (rabbit eyes): 0; Daily Draize Scores for Discharge, Day 7 (rabbit eyes; listed as NPI-001): 0 (4×) and 0.5 (2×); Daily Draize Scores for Chemosis, Day B (rabbit eyes): 0; Daily Draize Scores for Discharge, Day B (rabbit eyes): 0; Daily Draize Scores for Hyperemia, Day B (rabbit eyes): 0; NACA in aqueous humor [4]: detectable
